The values that follow come from PubChem BioAssay (NCI).

Holding throughout (assay): inhibition of tumour cell growth, NCI panel, 48 h
The test system of experiment [1] is SW-620 colon.
Experiment [2] has as its system M14 melanoma.
Experiment [3] relates to SK-MEL-28 melanoma.
The test system of experiment [4] is IGROV1 ovarian.
The test system of experiment [5] is OVCAR-8 ovarian.
Experiment [6] concerns SK-OV-3 ovarian.
For experiment [7], the system named is NCI-H522 lung.
Experiment [8] has as its system HCC-2998 colon.

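Exposure lasted 48 hours, with cells grown in 96-well plates and compounds tested at five concentrations. Here, GI50 denotes the concentration required for 50% inhibition of growth. At the TGI there is no net growth.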 Bounds are passed on as bounds.

With `CC(C)CCCC(C)[C@H]1CCC2C3CC=C4C[C@@H](OC(=O)CC(CC(=O)[O-])C(=O)[O-])CC[C@]4(C)C3CC[C@@]21C.N.N.[Pt+4]` (stereo partly specified), the GI50 in experiment [1], in experiment [2], in experiment [3], in experiment [4] and in experiment [5] was over 100 µM throughout. The TGI in experiment [1], in experiment [2], in experiment [3], in experiment [4] and in experiment [5] was over 100 µM in each case.
As for `COc1ccccc1NC(=O)C1=C(C)NC(C)=C(C(=O)Nc2ccccc2OC)C1c1ccc(C2C(C(=O)Nc3ccccc3OC)=C(C)NC(C)=C2C(=O)Nc2ccccc2OC)cc1`, the TGI in experiment [1] amounted to 4.06 µM; in experiment [6], 26 µM; in experiment [7], 3.52 µM; in experiment [2], 3.34 µM; in experiment [8], 3.56 µM; in experiment [3], 6.45 µM. The values for the TGI in experiment [4] and in experiment [5] were 3.89 µM and 7.52 µM, respectively.
Take `C=CC(=O)OCCCS(=O)(=O)[O-].C=CC(=O)OCCCS(=O)(=O)[O-].NC1CCCCC1N.[Pt+4]`: the GI50 in experiment [1], in experiment [6], in experiment [7], in experiment [2], in experiment [8] and in experiment [3] was over 25 µM throughout. The GI50 in experiment [4] and in experiment [5] was over 25 µM throughout. The TGI in experiment [1], in experiment [6], in experiment [7], in experiment [2], in experiment [8] and in experiment [3] was over 25 µM in each case. The TGI in experiment [4] and in experiment [5] was over 25 µM in each case.
On to `COc1ccc(C2C(C(=O)O)=C(CO)Oc3cc4c(cc32)OCO4)c(OC)c1` (stereo unspecified), for which the TGI in experiment [1], in experiment [6], in experiment [2], in experiment [3], in experiment [4] and in experiment [5] was over 100 µM in each case.
For `CC(C(=O)c1ccc(O)cc1)C1(O)C(=O)Nc2c(Cl)cc(Cl)cc21` (stereo unspecified), the TGI in experiment [1] is over 100 µM; in experiment [6], over 100 µM; in experiment [7], 57.8 µM; in experiment [2], over 61.2 µM; in experiment [8] it was over 100 µM; in experiment [3] it was 78.1 µM. The TGI in experiment [4] and in experiment [5] was over 100 µM throughout.
In the case of `O=C(CC(=O)c1cccc2ccccc12)C(=O)Nc1nccs1`, the TGI in experiment [1], in experiment [6], in experiment [7], in experiment [2], in experiment [8] and in experiment [3] was over 100 µM in each case. Further, the TGI in experiment [4] and in experiment [5] was over 100 µM throughout.
With `CC(C)(C)CC(C)(C)c1cc2c(O)c(c1)Cc1cc(C(C)(C)CC(C)(C)C)cc(c1O)Cc1cc(C(C)(C)CC(C)(C)C)cc(c1O)Cc1cc(C(C)(C)CC(C)(C)C)cc(c1O)Cc1cc(C(C)(C)CC(C)(C)C)cc(c1O)Cc1cc(C(C)(C)CC(C)(C)C)cc(c1O)Cc1cc(C(C)(C)CC(C)(C)C)cc(c1O)Cc1cc(C(C)(C)CC(C)(C)C)cc(c1O)C2`, the TGI in experiment [1], in experiment [7], in experiment [2], in experiment [8], in experiment [3] and in experiment [4] was over 100 µM in each case. In experiment [5], this molecule came in with a TGI of over 100 µM.
On to `O=c1c2cc(Br)ccc2n(C2OC(CO)C(O)C(O)C2O)c(=S)n1-c1ccccc1` (stereo unspecified), for which the TGI in experiment [1], in experiment [7], in experiment [8], in experiment [3], in experiment [4] and in experiment [5] was over 100 µM each time.
Regarding `CC/C(=N/O)C(C)C(=O)CCC(=O)Nc1ccc(Cl)cc1` (stereo unspecified), the TGI in experiment [1], in experiment [6], in experiment [2], in experiment [8], in experiment [3] and in experiment [4] was over 100 µM throughout. The molecule also gave a TGI in experiment [5] of over 100 µM.
Turning to `O=C(c1nc2ccc(Cl)cc2[nH]c1=O)C(O)c1cccc([N+](=O)[O-])c1` (stereo unspecified), the TGI in experiment [6] was over 100 µM; in experiment [7], over 100 µM; in experiment [2], over 100 µM; in experiment [8], over 100 µM; in experiment [3], 61.5 µM; in experiment [4] it was over 100 µM. In experiment [5], this molecule returned a TGI of over 100 µM.
`CC1=CC[C@@H]2C(=O)C=CC=C[C@H]12.[C-]#[O+].[C-]#[O+].[C-]#[O+].[Fe]`: the GI50 in experiment [6] is over 100 µM; in experiment [7], 9.81 µM; in experiment [2], over 100 µM; in experiment [8] it was over 100 µM; in experiment [3], over 100 µM; in experiment [5], over 100 µM. The TGI in experiment [6], in experiment [7], in experiment [2], in experiment [8], in experiment [3] and in experiment [5] was over 100 µM throughout.
Consider `[N-]=[N+]=Nc1nnc(CCCCc2nnc(N=[N+]=[N-])o2)o1`, for which the TGI in experiment [1], in experiment [6], in experiment [7], in experiment [2], in experiment [8] and in experiment [3] was over 100 µM each time. Further, the TGI in experiment [5] is over 100 µM.
For `COC(=O)CCC(=O)Nc1cc(C)ccc1C`, the TGI in experiment [1], in experiment [6], in experiment [7], in experiment [2], in experiment [8] and in experiment [3] was over 100 µM in each case. Further, the TGI in experiment [4] and in experiment [5] was over 100 µM in each case.
Take `CN(C)C(=S)/N=C(\N)N(C)C`: the TGI in experiment [1], in experiment [6], in experiment [7], in experiment [2], in experiment [8] and in experiment [3] was over 100 µM each time. Besides, the TGI in experiment [4] and in experiment [5] was over 100 µM each time.
Consider `Cc1cccc(/C=N/N=C(\N)NO)n1`, for which the TGI in experiment [1], in experiment [6], in experiment [7], in experiment [2], in experiment [8] and in experiment [3] was over 100 µM in each case. Besides, the TGI in experiment [4] and in experiment [5] was over 100 µM each time.
As to `Nc1ncc(-c2ccc3ncnc(N4CCc5cc(F)c(Cl)cc54)c3c2)cc1C(F)(F)F`, the GI50 in experiment [1] is 1.95 µM; in experiment [6], 2.15 µM; in experiment [7], 2.01 µM; in experiment [2], 2.74 µM; in experiment [8], 2.13 µM; in experiment [3], 2.04 µM. Further, in experiment [5], the GI50 is 2.34 µM. The TGI in experiment [1], in experiment [6], in experiment [7], in experiment [2], in experiment [8] and in experiment [3] was over 100 µM throughout. Besides, the TGI in experiment [5] is over 100 µM.
With `CCOC(=O)C1=C(Nc2cccc3ccccc23)OCC1=O`, the TGI in experiment [1], in experiment [6], in experiment [7], in experiment [2], in experiment [8] and in experiment [3] was over 100 µM throughout. Further, the TGI in experiment [4] and in experiment [5] was over 100 µM throughout.
For `O=C(/C=C/c1ccco1)N1CCN(Cc2ccccc2)CC1`, the TGI in experiment [1], in experiment [6], in experiment [7], in experiment [2], in experiment [8] and in experiment [3] was over 100 µM throughout. The TGI in experiment [4] and in experiment [5] was over 100 µM in each case.
Turning to `NC(=S)N/N=C1/C(=O)N(c2ccccc2)C(=O)C1C(=O)Nc1ccccc1` (stereo unspecified), the TGI in experiment [1], in experiment [6], in experiment [7], in experiment [2], in experiment [8] and in experiment [3] was over 100 µM throughout. Also, the TGI in experiment [4] and in experiment [5] was over 100 µM in each case.
Turning to `CC(=O)Nc1ccc(S(=O)(=O)N/N=C(\C)CN2C(=O)c3ccccc3C2=O)cc1`, the TGI in experiment [1], in experiment [6], in experiment [7], in experiment [2], in experiment [8] and in experiment [4] was over 100 µM throughout. For the same molecule, the TGI in experiment [5] is over 100 µM.
In the case of `O=C(Cc1ccccc1)N/N=C(/c1nc2ccc([N+](=O)[O-])cc2[nH]c1=O)C(O)c1ccco1` (stereo unspecified), the TGI in experiment [1], in experiment [6], in experiment [7], in experiment [2], in experiment [8] and in experiment [3] was over 100 µM in each case. For the same molecule, the TGI in experiment [4] and in experiment [5] was over 100 µM in each case.
For `NC(CCSCCF)C(=O)O` (stereo unspecified), the TGI in experiment [1], in experiment [6], in experiment [7], in experiment [2], in experiment [3] and in experiment [4] was over 100 µM throughout.
Take `CC(C)=CC1(C)/C(=N\O)C(C)(CC(C)C)C(=O)N1O` (stereo unspecified): the TGI in experiment [1], in experiment [6], in experiment [7], in experiment [2], in experiment [8] and in experiment [3] was over 100 µM throughout. The TGI in experiment [4] and in experiment [5] was over 100 µM in each case.
For the molecule `CC(C)(C)c1cc(C#N)c2c(c1)C(=O)OC2(c1ccccc1)c1ccccc1C#N` (stereo unspecified), the TGI in experiment [1], in experiment [6], in experiment [7], in experiment [2], in experiment [3] and in experiment [4] was over 100 µM in each case. The molecule also gave a TGI in experiment [5] of over 100 µM.
As for `OCC(O)C(OC1OC(CO)C(O)C(O)C1O)c1nn(-c2ccc(Cl)cc2)c2nc3cc(Cl)c(Cl)cc3nc12` (stereo unspecified), the TGI in experiment [6], in experiment [7], in experiment [2], in experiment [8], in experiment [3] and in experiment [5] was over 100 µM throughout.
Consider `C=CCC(O)c1cc(OC)ccc1OC` (stereo unspecified), for which the TGI in experiment [1], in experiment [6], in experiment [7], in experiment [2], in experiment [8] and in experiment [3] was over 100 µM throughout. Also, the TGI in experiment [4] and in experiment [5] was over 100 µM throughout.
For `CCOc1ccc2c(c1)[n+]([O-])c(-c1ccc([N+](=O)[O-])cc1)c(N)[n+]2[O-]`, the TGI in experiment [1], in experiment [6], in experiment [7], in experiment [2], in experiment [3] and in experiment [4] was over 100 µM throughout. The molecule further yielded a TGI in experiment [5] of over 100 µM.
For the molecule `Cc1c(-c2cc(-c3ccccc3)n[nH]c2=O)c2ccccc2n1C`, the TGI in experiment [1], in experiment [6], in experiment [7], in experiment [2], in experiment [8] and in experiment [3] was over 100 µM each time. Besides, the TGI in experiment [4] and in experiment [5] was over 100 µM throughout.
`Nc1ncnc2c1N=CN(Oc1ccccc1)N2`: the TGI in experiment [1], in experiment [6], in experiment [2], in experiment [3], in experiment [4] and in experiment [5] was over 100 µM each time.
As to `CNC(=O)NCCCCC(NC(=O)OCc1ccccc1)C(=O)OCc1ccccc1` (stereo unspecified), the TGI was over 100 µM in experiment [1]; over 100 µM in experiment [6]; 28.3 µM in experiment [7]; 31.3 µM in experiment [2]; 36.9 µM in experiment [8]; 60.6 µM in experiment [3]. Besides, the TGI in experiment [4] turned out to be 76.4 µM; in experiment [5], 67.2 µM.
With `CC1=C(C(=O)NCc2ccccc2)C(c2ccc(N(C)C)cc2)C(C(=O)NCc2ccccc2)=C(C)N1`, the TGI in experiment [1], in experiment [6], in experiment [7], in experiment [2], in experiment [8] and in experiment [3] was over 100 µM each time. Besides, the TGI in experiment [4] and in experiment [5] was over 100 µM in each case.
